Measured values as given in patent publication US20170327494A1, “NON-INVASIVE VENTILATION WITH HIGH FREQUENCY OSCILLATIONS” (KONINKLIJKE PHILIPS N.V., priority 2014, published 2017).

N#C/C(=C1/SCC(c2cc(Cl)sc2Cl)S1)n1ccnc1 (stereo not shown) [I.h.25, (2E)-2-[4-(2,5-dichloro-3-thienyl)-1,3-dithiolan-2-ylidene]-2-imidazol-1-yl-acetonitrile] showed a melting point of 117 to 119 °C.
